Test results from paper PMC8561395 (Biochemistry, 2021).
Where two headings read alike, the source gives them in different places.

Legend:
SsoPTP [1] = biological target: T1, SsoPTP (Saccharolobus solfataricus, UniProt Q97VZ7); assay: Inhibition of SsoPTP activity by buffers, pNPP as substrate
T1 sequence (Q97VZ7 1-161): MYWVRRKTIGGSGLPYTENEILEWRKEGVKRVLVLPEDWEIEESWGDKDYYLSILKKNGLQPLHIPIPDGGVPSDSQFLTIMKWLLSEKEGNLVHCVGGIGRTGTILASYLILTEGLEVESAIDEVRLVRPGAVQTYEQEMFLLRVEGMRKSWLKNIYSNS

[2] = system: bovine low molecular weight PTP; settings: more strongly than observed for SsoPTP; cited from earlier work
SsoPTP [3] = biological target: T1, SsoPTP; assay: Steady-state Michaelis-Menten kinetics with pNPP; format: biochemical, Sulfolobus solfataricus; settings: read-out: KM for pNPP

Inhibition of SsoPTP (in words) (SsoPTP [1]; pNPP substrate) | Compound | Ki (SsoPTP [1]) | other results
no inhibitory effect | CC(=O)O [Acetic acid] | – | –
– | O=S(=O)(O)CCCNC1CCCCC1 [CAPS] | – | Ki (SsoPTP [1]; pNPP substrate, 100 mM sodium acetate buffer pH 5.0, inhibitor 5–400 mM): 54 ± 11 mM
– | O=C(O)CC(O)(CC(=O)O)C(=O)O [Citric acid] | 8 ± 1 mM | –
– | O=S(=O)(O)CCN1CCN(CCO)CC1 [HEPES] | 44 ± 8 mM | Strength of inhibition of bovine low molecular weight PTP relative to SsoPTP [2]: about 10 fold
did not show measurable inhibition | O=S(=O)(O)CCCN1CCOCC1 [MOPS] | – | –
– | O=[N+]([O-])c1ccc(OP(=O)(O)O)cc1 [pNPP, p-nitrophenyl phosphate] | – | Km (SsoPTP [3]): 3.4 mM
